# Where a name gives a salt, the structure may show the parent alone.
# Target: Hsp82 (Saccharomyces cerevisiae, UniProt P02829)
# Experiment: Inhibition of the ATPase activity of Hsp82 in the enzymatic coupling system (pyruvate kinase / lactate dehydrogenase)
# Assay type: biochemical
# Conditions: ATPase activity of Hsp82, PK/LDH enzymatic coupling system, 1 μM Hsp82, 250 μM ATP, 37° C., 340 nm
# Text: The formation of ADP due to the ATPase activity of Hsp82 was utilized for developing another method for evaluating the enzymatic activity of this enzyme by the application of an enzymatic coupling system employing pyruvate kinase (PK) and lactate dehydrogenase (LDH). In this spectrophotometric method of the kinetic type, the PK catalyzes the formation of ATP and pyruvate from phosphenol-pyruvate (PEP) and of ADP produced by HSP82. The pyruvate formed, which is a substrate of LDH, is then converted to lactate in the presence of NADH. In this case, the decrease in the concentration of NADH, measured from the decrease in absorbance at a wavelength of 340 nm, is proportional to the concentration of ADP produced by HSP82. The test products are incubated in a reaction volume of 100 μl of compound buffer of 100 mM Hepes-NaOH (pH 7.5), 5 mM MgCl2, 1 mM DTT, 150 mM KCl, 0.3 mM NADH, 2.5 mM PEP and 250 μM ATP. This mixture is preincubated at 37° C. for 30 min before adding 3.77 units of LDH and 3.77 units of PK. The reaction is initiated by addition of the product to be evaluated, at variable concentrations, and of Hsp82, at a concentration of 1 μM. Then the enzymatic activity of Hsp82 is measured, continuously, in a microplate reader, at 37° C., at a wavelength of 340 nm. The initial rate of the reaction is obtained by measuring the slope of the tangent of the recorded curve to the origin. The enzymatic activity is expressed as μM of ADP formed per minute. The effect of the various products tested is expressed as percentage inhibition of the ATPase activity. The inhibitory activities on the ATPase activity of Hsp82 obtained with the products of the invention in the enzymatic coupling system are presented in the following table, according to the following criteria of inhibition of the ATPase activity of Hsp82: […]
# Chain of Hsp82 (P02829 whole entry): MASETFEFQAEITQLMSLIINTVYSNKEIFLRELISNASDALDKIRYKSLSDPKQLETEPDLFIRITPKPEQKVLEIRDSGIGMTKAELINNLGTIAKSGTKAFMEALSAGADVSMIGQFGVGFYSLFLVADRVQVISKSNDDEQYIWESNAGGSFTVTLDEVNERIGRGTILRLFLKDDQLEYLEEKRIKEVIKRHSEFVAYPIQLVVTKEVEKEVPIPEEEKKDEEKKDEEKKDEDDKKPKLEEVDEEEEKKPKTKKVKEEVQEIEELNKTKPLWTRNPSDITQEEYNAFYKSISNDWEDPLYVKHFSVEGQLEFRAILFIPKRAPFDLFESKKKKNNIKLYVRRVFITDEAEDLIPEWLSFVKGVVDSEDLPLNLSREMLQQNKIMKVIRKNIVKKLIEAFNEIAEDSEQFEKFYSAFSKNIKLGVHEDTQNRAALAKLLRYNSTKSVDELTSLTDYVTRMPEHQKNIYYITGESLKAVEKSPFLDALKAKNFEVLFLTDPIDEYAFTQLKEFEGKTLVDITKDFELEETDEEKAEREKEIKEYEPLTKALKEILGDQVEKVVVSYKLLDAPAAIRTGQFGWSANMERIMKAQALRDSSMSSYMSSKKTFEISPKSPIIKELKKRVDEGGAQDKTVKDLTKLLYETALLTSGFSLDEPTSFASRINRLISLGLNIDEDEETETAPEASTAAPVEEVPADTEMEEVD
row,Structure (SMILES),IC50 [nM]
1,"Cl.Clc1nc(N2CCN(Cc3ccccc3)CC2)c2nc[nH]c2n1 [Example 1, 2-Chloro-6-[4-(phenylmethyl)-piperazin-1-yl]-1H-purine monohydrochloride]",< 1000
2,"Clc1nc(N2CCN(c3ccccn3)CC2)c2nc[nH]c2n1 [Example 2, 2-chloro-6-[4-(pyridin-2-yl)-piperazin-1-yl]1H-purine]",< 1000
3,"Clc1nc(N2CCOCC2)c2nc[nH]c2n1 [Example 3, 2-chloro-6-(morpholin-4-yl)-1H-purine]",1000 to 10000
4,"Clc1nc(N2CCSCC2)c2nc[nH]c2n1 [Example 4, 2-chloro-6-(thiamorpholin-4-yl)-1H-purine]",1000 to 10000
5,"Clc1nc(N2CCCCC2)c2nc[nH]c2n1 [Example 5, 2-chloro-6-(piperidin-1-yl)-1H-purine]",< 1000
6,"Clc1nc(N2CCN(C(c3ccccc3)c3ccccc3)CC2)c2nc[nH]c2n1 [Example 6, 2-chloro-6-[4-(diphenylmethyl)-piperazin-1-yl]1H-purine]",1000 to 10000
7,"Clc1nc(NC2CCCC2)c2nc[nH]c2n1 [Example 7, 2-chloro-6-cyclopentylamino-1H-purine]",10000 to 100000
8,"Clc1nc(N2CCC(Cc3ccccc3)CC2)c2nc[nH]c2n1 [Example 8, 2-Chloro-6-[4-(phenylmethyl)-piperidin-1-yl]-1H-purine monohydrochloride]",< 1000
9,"Clc1nc(N2CCN(c3ccccc3)CC2)c2nc[nH]c2n1 [Example 9, 2-Chloro-6-(4-phenyl-piperazin-1-yl)-1H-purine monohydrochloride]",1000 to 10000
10,"COc1ccc(CN2CCN(c3nc(Cl)nc4[nH]cnc34)CC2)cc1OC [Example 10, 2-chloro-6-[4-(3,4-dimethoxy-phenyl)methyl-piperazin-1-yl]1H-purine]",10000 to 100000
11,"Clc1nc(N2CCN(c3cccnc3)CC2)c2nc[nH]c2n1 [Example 11, 2-chloro-6-[4-(pyridin-3-yl)-piperazin-1-yl]1H-purine]",1000 to 10000
12,"NC(=O)c1cccc(N2CCN(c3nc(Cl)nc4[nH]cnc34)CC2)c1 [Example 12, 2-chloro-6-[4-(3-carboxamido-phenyl)-piperazin-1-yl]1H-purine]",1000 to 10000
13,"Clc1cccc(N2CCN(c3nc(Cl)nc4[nH]cnc34)CC2)c1 [Example 13, 2-Chloro-6-[4-(3-chloro-phenyl)-piperazin-1-yl]1H-purine]",10000 to 100000
14,"COc1cc(C(=O)N2CCN(c3nc(Cl)nc4[nH]cnc34)CC2)cc(OC)c1OC [Example 14, 2-chloro-6-[4-(3,4,5-trimethoxy-phenyl)carbonyl-piperazin-1-yl]1H-purine]",10000 to 100000
15,"O=C(c1ccccc1)N1CCN(c2nc(Cl)nc3[nH]cnc23)CC1 [Example 15, 2-chloro-6-[4-(phenyl)carbonyl-piperazin-1-yl]1H-purine]",1000 to 10000
16,"Clc1nc(N2CCC(Nc3ccccc3)CC2)c2nc[nH]c2n1 [Example 16, 2-Chloro-6-[4-(phenylamino)-piperidin-1-yl]-1H-purine monohydrochloride]",< 1000
17,"Cc1cccc(N2CCN(c3nc(Cl)nc4[nH]cnc34)CC2)n1 [Example 18, 2-Chloro-6-[4-(6-methyl-pyridin-2-yl)-piperazin-1-yl]-1H-purine monohydrochloride]",1000 to 10000
18,"Clc1nc(N2CCN(c3ncccn3)CC2)c2nc[nH]c2n1 [Example 19, 2-Chloro-6-[4-(pyrimidin-2-yl)-piperazin-1-yl]-1H-purine monohydrochloride]",< 1000

# Next, values leading:
row,IC50 [nM],Structure (SMILES)
1,10000 to 100000,"COc1ccccc1N1CCN(c2nc(Cl)nc3[nH]cnc23)CC1 [Example 20, 2-Chloro-6-[4-(2-methoxy-phenyl)-piperazin-1-yl]-1H-purine monohydrochloride]"
2,< 1000,"Clc1nc(N2CCN(c3ccc4ccccc4n3)CC2)c2nc[nH]c2n1 [Example 21, 2-Chloro-6-[4-(quinolein-2-yl)-piperazin-1-yl]-1H-purine monohydrochloride]"
3,1000 to 10000,"FC(F)(F)c1ccccc1N1CCN(c2nc(Cl)nc3[nH]cnc23)CC1 [Example 22, 2-chloro-6-[4-(2-trifluoromethyl-phenyl)-piperazin-1-yl]1H-purine]"
4,1000 to 10000,"Fc1nc(N2CCN(c3ccccn3)CC2)c2nc[nH]c2n1 [Example 23, 2-Fluoro-[4-(pyridin-2-yl)-piperazin-1-yl]1H-purine]"
5,1000 to 10000,"FC(F)(F)c1cccnc1N1CCN(c2nc(Cl)nc3[nH]cnc23)CC1 [Example 24, 2-Chloro-6-[4-(3-trifluoromethyl-pyridin-2-yl)-piperazin-1-yl]-9H-purine]"
6,< 1000,"OCc1cc(F)ccc1N1CCN(c2nc(Cl)nc3[nH]cnc23)CC1 [Example 26, {2-[4-(2-Chloro-9H-purin-6-yl)-piperazin-1-yl]-5-fluoro-phenyl}-methanol]"
7,< 1000,"NC(=O)c1cccnc1N1CCN(c2nc(Cl)nc3[nH]cnc23)CC1 [Example 27, 2-[4-(2-Chloro-9H-purin-6-yl)-piperazin-1-yl]-nicotinamide]"
8,1000 to 10000,"Clc1nc(N2CCN(Cc3ccccc3)CC2)c2cc[nH]c2n1 [Example 28, 4-(4-Phenylmethyl-piperazin-1-yl)-2-chloro-7H-pyrrolo[2,3-d]pyrimidine]"
9,< 1000,"Clc1nc(N2CCN(c3ccccn3)CC2)c2cc[nH]c2n1 [Example 29, 2-Chloro-4-(4-pyridin-2-yl-piperazin-1-yl)-7H-pyrrolo[2,3-d]pyrimidine]"
10,< 1000,"Cl.Clc1cc(N2CCN(c3ccccn3)CC2)c2nc[nH]c2n1 [Example 30, 5-Chloro-7-(4-pyridin-2-yl-piperazin-1-yl)-3H-imidazo[4,5-b]pyridine monohydrochloride]"
11,< 1000,"NC(=O)c1ccccc1N1CCN(c2cc(Cl)nc3[nH]cnc23)CC1 [Example 31, 2-[4-(5-Chloro-3H-imidazo[4,5-b]pyridin-7-yl)-piperazin-1-yl]-benzamide]"

# Tested on: not given
# Experiment: not given
# Conditions: not given
row,Structure (SMILES),melting point [°C]
1,"Cl.Clc1nc(N2CCN(Cc3ccccc3)CC2)c2nc[nH]c2n1 [Example 1, 2-Chloro-6-[4-(phenylmethyl)-piperazin-1-yl]-1H-purine monohydrochloride]",264 to 266
2,"Clc1cccc(N2CCN(c3nc(Cl)nc4[nH]cnc34)CC2)c1 [Example 13, 2-Chloro-6-[4-(3-chloro-phenyl)-piperazin-1-yl]1H-purine]",> 260

# Further lines, results first:
row,melting point [°C],Structure (SMILES)
1,> 260,"Fc1nc(N2CCN(c3ccccn3)CC2)c2nc[nH]c2n1 [Example 23, 2-Fluoro-[4-(pyridin-2-yl)-piperazin-1-yl]1H-purine]"
2,250,"Clc1nc(N2CCN(Cc3ccccc3)CC2)c2cc[nH]c2n1 [Example 28, 4-(4-Phenylmethyl-piperazin-1-yl)-2-chloro-7H-pyrrolo[2,3-d]pyrimidine]"
3,> 260,"Cl.Clc1cc(N2CCN(c3ccccn3)CC2)c2nc[nH]c2n1 [Example 30, 5-Chloro-7-(4-pyridin-2-yl-piperazin-1-yl)-3H-imidazo[4,5-b]pyridine monohydrochloride]"
